# Patent publication US10828316B2, “Method of treating bacterial infections” (priority 2016, dated 2020)
# Legend:
# [1] = tested on: K. pneumoniae EN0262; settings: commercial antibiotics, data provided by IMBIM, BMC, Uppsala University; cited from earlier work
# [2] = tested on: S. flexneri APV00906; assay: MIC; assay type: cell-based; settings: S. flexneri APV00906; for MIC: Shigella flexneri, read-out: Antibiogram MIC
# [3] = tested on: S. flexneri APV00907; assay: MIC; assay type: cell-based; settings: S. flexneri APV00907; for MIC: Shigella flexneri, read-out: Antibiogram MIC
# [4] = tested on: S. sonnei APV00908; assay: MIC; assay type: cell-based; settings: S. sonnei APV00908; for MIC: Shigella sonnei, read-out: Antibiogram MIC
# [5] = tested on: S. aureus strain no 13; assay: MIC; settings: S. aureus strain 13, trimethoprim 2 μg/ml
molecule,measurement,setting,value
colistin,MIC,[1],1 µg/mL
CCN1CCN(C(=O)N[C@@H](C(=O)N[C@@H]2C(=O)N3[C@@H]2SC(C)(C)[C@@H]3C(=O)O)c2ccccc2)C(=O)C1=O [piperacillin],MIC,[1],>256 µg/mL
C[C@@H](O)[C@H]1C(=O)N2C(C(=O)O)=C(S[C@@H]3CN[C@H](C(=O)Nc4cccc(C(=O)O)c4)C3)[C@H](C)[C@H]12 [Ertapenem],MIC,[2],≤ 0.5 µg/mL
same,MIC,[3],≤ 0.5 µg/mL
same,MIC,[4],≤ 0.5 µg/mL
O=C1CN(/N=C/c2ccc([N+](=O)[O-])o2)C(=O)N1 [Nitrofurantoin],MIC,[2],≤ 16 µg/mL
same,MIC,[3],≤ 16 µg/mL
same,MIC,[4],≤ 16 µg/mL
C[C@@H](O)[C@H]1C(=O)N2C(C(=O)O)=C(S[C@@H]3CN[C@H](C(=O)N(C)C)C3)[C@H](C)[C@H]12 [meropenem],MIC,[2],≤ 0.25 µg/mL
same,MIC,[3],≤ 0.25 µg/mL
same,MIC,[4],≤ 0.25 µg/mL
same,MIC,[1],>8 µg/mL
O=c1[nH]c(=O)n([C@H]2C[C@H](O)[C@@H](CO)O2)cc1Br [BrdUrd],MIC BrdUrd,[5]; uridine 10 μg/ml,≤2 µg/mL
same,MIC BrdUrd,[5]; uridine 100 μg/ml,≤2 µg/mL
C[C@H]1[C@H](NC(=O)/C(=N\OC(C)(C)C(=O)O)c2csc(N)n2)C(=O)N1S(=O)(=O)O [aztreonam],MIC,[1],>16 µg/mL
NCC[C@H](O)C(=O)N[C@@H]1C[C@H](N)[C@@H](O[C@H]2O[C@H](CN)[C@@H](O)[C@H](O)[C@H]2O)[C@H](O)[C@H]1O[C@H]1O[C@H](CO)[C@@H](O)[C@H](N)[C@H]1O [amikacin],"Antibiogram category (S, I, R, R*)",[2],R*
same,MIC,[2],16 µg/mL
same,"Antibiogram category (S, I, R, R*)",[3],R*
same,MIC,[3],4 µg/mL
same,"Antibiogram category (S, I, R, R*)",[4],R*
same,MIC,[4],4 µg/mL
same,MIC,[1],8 µg/mL
gentamicin,Antibiogram MIC,[2],4 µg/mL
same,"Antibiogram category (S, I, R, R*)",[2],R*
same,Antibiogram MIC,[3],≤ 1 µg/mL
same,"Antibiogram category (S, I, R, R*)",[3],R*
same,Antibiogram MIC,[4],≤ 1 µg/mL
same,"Antibiogram category (S, I, R, R*)",[4],R*
same,MIC,[1],1 µg/mL
